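1) Cells in 96-well plates. 2) Compound, 48 h, 5 concentrations. 3) Linear interpolation between surrounding doses. 4) Unreached endpoint = highest concentration. GI50: concentration for 50% inhibition of growth.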 Activity calls are given as the source filed them. Rule as the data show it: active = GI50 up to about 1.1 µM and inactive = higher.
Columns and labels:
Assay in all cases: inhibition of tumour cell growth, NCI panel, 48 h
[1] = test system: SW-620
[2] = test system: HL-60
[3] = test system: SK-MEL-5
[4] = test system: OVCAR-3
[5] = test system: 786-0
[6] = test system: UO-31
[7] = test system: MCF7
[8] = test system: T47D
[9] = test system: HT-29
[10] = test system: SNB-75
[11] = test system: PC-3
[12] = test system: HCT-15
[13] = test system: SN12C
[14] = test system: OVCAR-5
[15] = test system: SK-OV-3
[16] = test system: U-251
[17] = test system: OVCAR-8
[18] = test system: SK-MEL-2
[19] = test system: CAKI-1
[20] = test system: MDA-N

| Compound | GI50 [1] | GI50 [2] | GI50 [3] | GI50 [4] | GI50 [5] | GI50 [6] | GI50 [7] | GI50 [8] | GI50 [9] | GI50 [10] | GI50 [11] | GI50 [12] | GI50 [13] | GI50 [14] | GI50 [15] | GI50 [16] | GI50 [17] | GI50 [18] | GI50 [19] | GI50 [20] |
| --- | --- | --- | --- | --- | --- | --- | --- | --- | --- | --- | --- | --- | --- | --- | --- | --- | --- | --- | --- | --- |
| c1ccc2c(c1)ncn2CCn1ccnc1 | > 100 µM (inactive) | > 100 µM (inactive) | > 100 µM (inactive) | > 100 µM (inactive) | > 100 µM (inactive) | > 100 µM (inactive) | > 100 µM (inactive) | > 100 µM (inactive) | > 100 µM (inactive) | > 100 µM (inactive) | > 100 µM (inactive) | > 100 µM | > 100 µM (inactive) | > 100 µM (inactive) | > 100 µM (inactive) | > 100 µM (inactive) | > 100 µM (inactive) | > 100 µM (inactive) | – | – |
| N#Cc1c(N)nc(Sc2ccccc2N)c(C#N)c1-c1ccccc1 | 30.9 µM (inactive) | 0.141 µM (active) | 19.4 µM (inactive) | – | 13.5 µM (inactive) | 11.4 µM (inactive) | 10.6 µM (inactive) | – | 24.5 µM (inactive) | – | 9.64 µM (inactive) | 15.2 µM | – | 46.3 µM (inactive) | – | 19.6 µM (inactive) | 20.2 µM (inactive) | 10.9 µM (inactive) | 28.6 µM (inactive) | – |
| OC1CN2CCS[C@H]2C(O)C1O (some centres not stated) | > 100 µM (inactive) | > 100 µM (inactive) | > 100 µM (inactive) | > 100 µM (inactive) | > 100 µM (inactive) | > 100 µM (inactive) | – | > 100 µM (inactive) | > 100 µM (inactive) | > 100 µM (inactive) | > 100 µM (inactive) | > 100 µM | – | > 100 µM (inactive) | > 100 µM (inactive) | > 100 µM (inactive) | > 100 µM (inactive) | > 100 µM (inactive) | > 100 µM (inactive) | – |
| CCOC(=O)c1sc2nc(SC)nc3c2c1NC(=O)CN3c1ccc(F)cc1 | 38.5 µM (inactive) | 98.6 µM (inactive) | 46.3 µM (inactive) | 26.4 µM (inactive) | – | 18 µM (inactive) | 87.3 µM (inactive) | – | 44.6 µM (inactive) | – | 16.6 µM (inactive) | – | 24.6 µM (inactive) | 41.7 µM (inactive) | 25 µM (inactive) | 43.5 µM (inactive) | 22.1 µM (inactive) | 54.3 µM (inactive) | > 100 µM (inactive) | 37.9 µM (inactive) |
| CNC(=O)OCC1C2=C(C(=O)C(C)=C(N)C2=O)N2CC3C(N3C)C12OC (configuration not stated) | 10.8 µM (inactive) | 1.92 µM (inactive) | 11.5 µM (inactive) | 26.5 µM (inactive) | 4.02 µM (inactive) | – | 3.29 µM (inactive) | 21.9 µM (inactive) | 10.3 µM (inactive) | – | 13.9 µM (inactive) | 12.1 µM | 5.61 µM (inactive) | 72.8 µM (inactive) | 28.9 µM (inactive) | 14.1 µM (inactive) | 11.4 µM (inactive) | 26.1 µM (inactive) | 3.16 µM (inactive) | – |
| COC(=O)C[C@H](COCc1ccccc1)NC(=O)C[C@H](COCc1ccccc1)NC(=O)OC(C)(C)C | 55.8 µM (inactive) | > 100 µM (inactive) | 45.8 µM (inactive) | 27.7 µM (inactive) | 20.4 µM (inactive) | 32.5 µM (inactive) | 19.8 µM (inactive) | 33.9 µM (inactive) | 30 µM (inactive) | 25.1 µM (inactive) | 26.9 µM (inactive) | 30.7 µM | 26.4 µM (inactive) | 33.8 µM (inactive) | 23.2 µM (inactive) | 27.9 µM (inactive) | 24.7 µM (inactive) | 37.2 µM (inactive) | 29.7 µM (inactive) | – |
| Cc1sc2nc(-c3cccc([N+](=O)[O-])c3)c(/C=N/N=C(N)N)n2c1C | 1.75 µM (inactive) | 1.81 µM (inactive) | 1.67 µM (inactive) | 1.82 µM (inactive) | 1.83 µM (inactive) | 1.75 µM (inactive) | 1.84 µM (inactive) | – | 1.62 µM (inactive) | – | 1.63 µM (inactive) | 1.67 µM | 1.92 µM (inactive) | 1.65 µM (inactive) | 1.8 µM (inactive) | 1.7 µM (inactive) | 1.84 µM (inactive) | 1.71 µM (inactive) | 1.82 µM (inactive) | 1.77 µM (inactive) |
| CCOC(=O)c1cc(NC(=O)c2ccccc2)c(=O)n2c(cc3c(Cl)cccc32)c1O | > 100 µM (inactive) | > 100 µM (inactive) | > 100 µM (inactive) | > 100 µM (inactive) | > 100 µM (inactive) | > 100 µM (inactive) | > 100 µM (inactive) | – | > 100 µM (inactive) | – | > 100 µM (inactive) | > 100 µM | > 100 µM (inactive) | > 100 µM (inactive) | > 100 µM (inactive) | > 100 µM (inactive) | > 100 µM (inactive) | > 100 µM (inactive) | > 100 µM (inactive) | > 100 µM (inactive) |
| COc1cc2c(cc1OC)CC1c3cc(OC)c(OC)cc3CCN1CC2 (configuration not stated) | 84.1 µM (inactive) | 10.6 µM (inactive) | 30.8 µM (inactive) | > 100 µM (inactive) | > 100 µM (inactive) | 0.199 µM (active) | > 100 µM (inactive) | > 100 µM (inactive) | 27.5 µM (inactive) | > 100 µM (inactive) | > 100 µM (inactive) | > 100 µM | > 100 µM (inactive) | > 100 µM (inactive) | > 100 µM (inactive) | 52.8 µM (inactive) | 95.5 µM (inactive) | > 100 µM (inactive) | > 100 µM (inactive) | – |
| Cc1ccc(Nc2nc(=S)[nH]c3[nH]ncc23)cc1 | > 100 µM (inactive) | 48.8 µM (inactive) | 37.6 µM (inactive) | 50.4 µM (inactive) | > 100 µM (inactive) | 78 µM (inactive) | 37.3 µM (inactive) | 66.1 µM (inactive) | 42.5 µM (inactive) | > 100 µM (inactive) | 51.2 µM (inactive) | 47.6 µM | 71.8 µM (inactive) | > 100 µM (inactive) | > 100 µM (inactive) | 64.7 µM (inactive) | > 100 µM (inactive) | 82.4 µM (inactive) | 58.1 µM (inactive) | – |
| COc1ccc(C2=CC3CCC2C3)cc1 (configuration not stated) | > 100 µM (inactive) | 50 µM (inactive) | > 100 µM (inactive) | > 100 µM (inactive) | > 100 µM (inactive) | > 100 µM (inactive) | – | – | > 100 µM (inactive) | > 100 µM (inactive) | – | > 100 µM | > 100 µM (inactive) | > 100 µM (inactive) | 12.2 µM (inactive) | > 100 µM (inactive) | > 100 µM (inactive) | > 100 µM (inactive) | > 100 µM (inactive) | – |
| COc1cc([C@@H]2c3cc4c(cc3[C@@H](NC(=O)c3cccc(N)c3)C3COC(=O)[C@@H]32)OCO4)cc(OC)c1O (some centres not stated) | 0.391 µM (active) | 0.233 µM (active) | 1.66 µM (inactive) | 4.35 µM (inactive) | 0.421 µM (active) | 9.06 µM (inactive) | – | – | 2.83 µM (inactive) | 1.48 µM (inactive) | – | 1.99 µM | 0.445 µM (active) | 2.58 µM (inactive) | 1.97 µM (inactive) | 0.242 µM (active) | 1.97 µM (inactive) | 3.3 µM (inactive) | 0.333 µM (active) | – |
